Values of other authors, collected in patent US6656915B1, “Inhibiting T-cell proliferation” (Biocryst Pharmaceuticals, Inc., priority 1999, dated 2003).
Where two headings read alike, the source gives them in different places. Blank lines part the entries; values can stand above or below the compound they belong to.

Key:
[1] = system: peripheral blood lymphocytes; details: dogs
[2] = upon being administered to a host, alone
[3] = system: peripheral blood lymphocytes; details: rats
T-cells [4] = details: rats; given with 2′-deoxyguanosine
T-cells [5] = details: humans; PNP inhibitor without exogenous 2′-deoxyguanosine
PNP = PNP (Homo sapiens, UniProt P00491); details: humans; indicating effective inhibition of PNP
[6] = system: human T-cells (CCRF-CEM and Molt-4 cells); details: given with 2′-deoxyguanosine; CCRF-CEM and Molt-4 cells in cultures
[7] = 2′-deoxyguanosine alone, without PNP inhibition

PNP, sequence (P00491 whole entry): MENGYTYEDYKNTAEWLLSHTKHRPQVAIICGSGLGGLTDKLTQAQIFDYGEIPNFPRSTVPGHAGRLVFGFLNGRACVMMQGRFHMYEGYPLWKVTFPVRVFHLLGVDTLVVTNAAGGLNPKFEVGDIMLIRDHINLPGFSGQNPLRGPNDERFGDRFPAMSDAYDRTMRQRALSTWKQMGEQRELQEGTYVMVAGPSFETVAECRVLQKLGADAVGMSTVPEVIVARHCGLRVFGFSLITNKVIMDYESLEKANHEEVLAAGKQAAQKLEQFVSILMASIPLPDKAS

- degradation of exogenous 2′-deoxyguanosine [2]: rapidly degrades
SMILES: Nc1nc2c(ncn2[C@H]2C[C@H](O)[C@@H](CO)O2)c(=O)[nH]1 [2′-deoxyguanosine]
- cell counts (lymphopenia) [1, 7]: did not significantly decrease cell counts
- cell counts (lymphopenia) [3, 7]: did not significantly decrease cell counts

SMILES: Nc1nc2c(nc(N)n2[C@@H]2O[C@H](CO)[C@@H](O)[C@H]2O)c(=O)[nH]1 [8-Aminoguanosine, reference compound]
- peripheral blood lymphocytes ([1]; given with 2′-deoxyguanosine): profound fall
- peripheral blood lymphocytes ([3]; given with 2′-deoxyguanosine): profound fall
- levels of 2′-deoxyguanosine triphosphate (dGTP) in T-cells (T-cells [4]): increased levels

- plasma inosine levels (PNP): increases plasma inosine levels
SMILES: Nc1nc2c(Cc3cccnc3)c[nH]c2c(=O)[nH]1 [9-(3-Pyridylmethyl)-9-deazaguanine]
- T-cell counts (T-cells [5]): did not reduce T-cell counts

SMILES: Nc1nc2nc(N)[nH]c2c(=O)[nH]1 [8-Aminoguanine]
- proliferation of human T-cells [6]: inhibits the proliferation
